# Assay results as given in US20260258003A1, “SLACK-ACTIVATING COMPOUNDS AND THEIR MEDICAL USE” (Johann Wolfgang Goethe-Universität Frankfurt am Main, priority 2023, published 2026).
# Like-named read-outs stand apart in the source and are kept apart here.
# Assays:
# [1] = In vivo pharmacokinetic study, plasma and brain levels by LC-MS; parameters: species or system mice; details: male, C57BL/6, mouse, in vivo, ip
# Protocol: The compounds pharmacokinetic properties were examined in vivo by administering the compounds intraperitoneally (i.p.) at 1 mg/kg in mice, and determining plasma and brain levels over 8 h by LC-MS measurements.
# The pharmacokinetic study was performed by Pharmacelsus (Saarbrücken, Germany). In total 27 male C57BL/6 mice (8 weeks old, 23-31 g body weight, purchased from Janvier Labs, France) were used. The animals were housed in a temperature-controlled room (20-24° C.) and maintained in a 12 h light/dark cycle. Food and water were available ad libitum. All experimental procedures were approved by and conducted in accordance with the regulations of the local Animal Welfare authorities (Landesamt für Gesundheit und Verbraucherschutz, Abteilung Lebensmittel-und Veterinärwesen, Saarbrücken).
# The animals were divided into 3 groups (9 mice/group) and a cassette dosing was performed, in which the mice received a single dose of 1 mg/kg body weight of 3-4 compounds (dissolved in 0.9% NaCl containing 20% cyclodextrine) i.p. simultaneously. From each animal 2 blood samples were collected from the retrobulbar venous plexus under short isoflurane anesthesia (at 0.25 h and 0.5 h from 3 mice; at 1 h and 2 h from 3 mice; and at 4 h and 8 h from 3 mice). Li-heparin was used as anticoagulant. Plasma samples were obtained by centrifugation for 10 min at 3000× g and 4° C. Immediately after the last blood sample the animal was sacrificed by cervical dislocation and the brain was removed and frozen in liquid nitrogen. Plasma and brain samples were stored at −80° C. until LC-MS analysis.
# For all other compounds, the HPLC system consisted of a U-HPLC pump (Accela) and an AS Open auto sampler (Thermo Fisher Scientific, USA), and mass spectrometry was performed on a Q Exactive (Orbitrap) accurate mass spectrometer equipped with a heated electrospray (H-ESI) interface (Thermo Fisher Scientific, USA) connected to a PC running the standard software Chromeleon 7.2. For all compounds, the HPLC pump flow rate was set to 600 μl/min and the compounds were separated on an analytical column with a suitable pre-column. The pharmacokinetic analysis was performed applying a non-compartment model using the Kinetica 5.0 software (Thermo Scientific, Waltham, USA). All given parameters were obtained by trapezoid area calculation.
# [2] = test system: 44 targets; assay: SafetyScreen44 panel (Eurofins), whole panel; type: binding, mostly human; details: 10 μM, out of 44 targets
# Protocol: (§1) Compound enzyme inhibition effect was calculated as a % inhibition of control enzyme activity. […] Measurements were performed in duplicate.
# [3] = target: T1, alpha-1A adrenergic receptor (α1A) (Homo sapiens, UniProt P35348); assay: SafetyScreen44 binding; details: 10 μM; substantial = higher than 50%
# T1 construct: Eurofins SafetyScreen44
# T1 sequence (P35348 whole entry): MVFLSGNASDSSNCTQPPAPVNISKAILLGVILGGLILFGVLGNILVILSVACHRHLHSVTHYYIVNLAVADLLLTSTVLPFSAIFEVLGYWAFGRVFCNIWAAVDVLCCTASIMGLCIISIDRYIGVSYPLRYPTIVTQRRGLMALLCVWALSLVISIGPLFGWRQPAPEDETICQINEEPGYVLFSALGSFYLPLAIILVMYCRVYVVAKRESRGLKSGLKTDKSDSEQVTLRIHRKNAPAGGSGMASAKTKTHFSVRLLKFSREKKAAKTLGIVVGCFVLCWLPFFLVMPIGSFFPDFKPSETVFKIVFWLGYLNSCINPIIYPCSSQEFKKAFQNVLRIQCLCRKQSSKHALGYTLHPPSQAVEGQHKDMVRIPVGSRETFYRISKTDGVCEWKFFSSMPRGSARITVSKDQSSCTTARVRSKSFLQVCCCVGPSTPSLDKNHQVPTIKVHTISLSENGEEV
# Protocol: as §1
# [4] = target: T2, dopamine receptor D1 (D1) (Homo sapiens, UniProt P21728); assay: SafetyScreen44 binding; details: 10 μM; substantial = higher than 50%
# T2 construct: Eurofins SafetyScreen44
# T2 sequence (P21728 whole entry): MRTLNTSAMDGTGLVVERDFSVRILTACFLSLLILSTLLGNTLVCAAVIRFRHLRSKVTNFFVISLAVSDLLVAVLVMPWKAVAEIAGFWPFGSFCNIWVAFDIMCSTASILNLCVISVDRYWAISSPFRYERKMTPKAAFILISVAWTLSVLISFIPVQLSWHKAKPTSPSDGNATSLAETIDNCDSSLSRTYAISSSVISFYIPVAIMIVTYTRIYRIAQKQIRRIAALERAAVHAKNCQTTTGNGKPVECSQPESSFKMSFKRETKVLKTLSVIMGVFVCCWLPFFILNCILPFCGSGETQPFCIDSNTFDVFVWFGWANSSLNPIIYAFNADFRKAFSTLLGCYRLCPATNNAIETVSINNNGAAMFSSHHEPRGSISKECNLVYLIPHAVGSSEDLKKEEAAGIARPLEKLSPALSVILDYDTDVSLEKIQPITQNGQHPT
# Protocol: as §1
# [5] = target: T3, histamine H1 receptor (H1) (Homo sapiens, UniProt P35367); assay: SafetyScreen44 binding; details: 10 μM; substantial = higher than 50%
# T3 construct: Eurofins SafetyScreen44
# T3 sequence (P35367 whole entry): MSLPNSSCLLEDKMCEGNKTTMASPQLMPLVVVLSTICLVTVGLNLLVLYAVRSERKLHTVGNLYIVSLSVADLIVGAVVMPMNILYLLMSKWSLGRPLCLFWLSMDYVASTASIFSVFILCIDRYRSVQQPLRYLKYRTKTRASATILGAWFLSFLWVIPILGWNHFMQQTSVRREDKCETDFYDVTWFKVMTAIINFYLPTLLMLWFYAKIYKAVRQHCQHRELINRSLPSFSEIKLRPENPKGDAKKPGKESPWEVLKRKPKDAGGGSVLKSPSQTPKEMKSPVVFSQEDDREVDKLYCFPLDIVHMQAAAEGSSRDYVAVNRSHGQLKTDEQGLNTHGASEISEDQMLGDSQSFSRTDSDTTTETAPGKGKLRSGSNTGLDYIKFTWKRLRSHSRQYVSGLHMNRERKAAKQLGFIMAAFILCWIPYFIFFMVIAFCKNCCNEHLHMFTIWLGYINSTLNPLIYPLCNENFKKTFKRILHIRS
# Protocol: as §1
# [6] = target: T4, human ether-à-go-go (hERG) potassium channel (Homo sapiens, UniProt Q12809); assay: SafetyScreen44 binding; details: 10 μM
# T4 construct: Eurofins SafetyScreen44
# T4 sequence (Q12809 whole entry): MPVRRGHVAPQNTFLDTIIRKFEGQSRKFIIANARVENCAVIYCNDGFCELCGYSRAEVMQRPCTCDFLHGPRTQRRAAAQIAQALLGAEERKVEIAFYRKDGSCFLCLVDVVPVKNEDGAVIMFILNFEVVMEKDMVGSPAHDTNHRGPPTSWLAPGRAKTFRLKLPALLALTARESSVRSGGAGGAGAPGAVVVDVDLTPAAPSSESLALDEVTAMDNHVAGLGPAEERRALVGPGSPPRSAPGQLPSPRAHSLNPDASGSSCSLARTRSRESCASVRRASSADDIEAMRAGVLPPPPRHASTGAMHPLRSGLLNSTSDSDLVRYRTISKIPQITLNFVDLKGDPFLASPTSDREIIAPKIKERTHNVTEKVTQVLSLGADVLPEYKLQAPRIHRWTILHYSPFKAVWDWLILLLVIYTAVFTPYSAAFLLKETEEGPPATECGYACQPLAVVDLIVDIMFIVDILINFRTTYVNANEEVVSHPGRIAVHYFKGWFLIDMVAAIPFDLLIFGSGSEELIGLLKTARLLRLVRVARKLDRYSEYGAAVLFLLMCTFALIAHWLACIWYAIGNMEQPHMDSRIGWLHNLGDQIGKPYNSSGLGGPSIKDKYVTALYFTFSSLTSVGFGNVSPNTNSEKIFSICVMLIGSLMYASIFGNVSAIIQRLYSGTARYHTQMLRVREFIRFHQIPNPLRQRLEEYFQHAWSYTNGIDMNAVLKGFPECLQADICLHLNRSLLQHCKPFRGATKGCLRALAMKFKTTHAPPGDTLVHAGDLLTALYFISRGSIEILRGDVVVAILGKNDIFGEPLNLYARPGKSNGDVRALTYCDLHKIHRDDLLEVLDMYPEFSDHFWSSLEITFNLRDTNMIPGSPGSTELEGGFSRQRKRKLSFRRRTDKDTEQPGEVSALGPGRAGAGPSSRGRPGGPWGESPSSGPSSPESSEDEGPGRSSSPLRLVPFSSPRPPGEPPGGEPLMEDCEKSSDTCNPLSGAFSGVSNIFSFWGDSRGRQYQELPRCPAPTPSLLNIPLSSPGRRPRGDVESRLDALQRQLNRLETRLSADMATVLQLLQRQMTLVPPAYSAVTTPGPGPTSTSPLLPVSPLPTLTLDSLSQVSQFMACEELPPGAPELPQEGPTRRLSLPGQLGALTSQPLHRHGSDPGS
# Protocol: as §1
# [7] = target: T5, serotonin 5-HT2A receptor (Homo sapiens, UniProt P28223); assay: SafetyScreen44 binding; details: 10 μM; substantial = higher than 50%
# T5 construct: Eurofins SafetyScreen44
# T5 sequence (P28223 whole entry): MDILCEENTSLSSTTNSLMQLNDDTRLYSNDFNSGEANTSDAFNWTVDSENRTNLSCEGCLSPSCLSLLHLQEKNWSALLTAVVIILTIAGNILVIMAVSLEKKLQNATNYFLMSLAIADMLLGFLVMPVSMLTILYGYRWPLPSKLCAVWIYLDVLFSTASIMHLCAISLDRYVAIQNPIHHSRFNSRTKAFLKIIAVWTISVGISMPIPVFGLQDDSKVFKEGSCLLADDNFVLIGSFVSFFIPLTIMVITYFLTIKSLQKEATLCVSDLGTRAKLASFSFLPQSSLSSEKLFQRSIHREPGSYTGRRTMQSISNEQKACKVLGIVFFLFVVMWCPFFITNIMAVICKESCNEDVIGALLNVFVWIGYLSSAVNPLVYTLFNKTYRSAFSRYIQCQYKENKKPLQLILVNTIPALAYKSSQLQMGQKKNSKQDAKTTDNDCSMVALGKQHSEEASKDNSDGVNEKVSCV
# Protocol: as §1
# [8] = target: T6, serotonin 5-HT2B receptor (Homo sapiens, UniProt P41595); assay: SafetyScreen44 binding; details: 10 μM; substantial = higher than 50%
# T6 construct: Eurofins SafetyScreen44
# T6 sequence (P41595 whole entry): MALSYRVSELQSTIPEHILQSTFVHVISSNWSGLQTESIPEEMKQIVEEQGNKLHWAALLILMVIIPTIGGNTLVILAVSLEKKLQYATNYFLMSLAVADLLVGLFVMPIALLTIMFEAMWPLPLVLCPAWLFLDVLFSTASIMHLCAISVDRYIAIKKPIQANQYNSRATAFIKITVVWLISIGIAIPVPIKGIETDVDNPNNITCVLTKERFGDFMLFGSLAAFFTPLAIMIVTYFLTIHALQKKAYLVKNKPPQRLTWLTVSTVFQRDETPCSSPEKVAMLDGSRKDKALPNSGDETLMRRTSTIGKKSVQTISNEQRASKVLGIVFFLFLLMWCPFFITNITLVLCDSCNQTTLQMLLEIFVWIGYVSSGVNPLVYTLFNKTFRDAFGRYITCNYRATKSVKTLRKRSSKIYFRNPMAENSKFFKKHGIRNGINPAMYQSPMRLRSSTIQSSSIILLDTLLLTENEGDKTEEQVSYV
# Protocol: as §1
# [9] = target: T7, norepinephrine transporter (NET) (Homo sapiens, UniProt P23975); assay: SafetyScreen44 binding; details: 10 μM; substantial = higher than 50%
# T7 construct: Eurofins SafetyScreen44
# T7 sequence (P23975 whole entry): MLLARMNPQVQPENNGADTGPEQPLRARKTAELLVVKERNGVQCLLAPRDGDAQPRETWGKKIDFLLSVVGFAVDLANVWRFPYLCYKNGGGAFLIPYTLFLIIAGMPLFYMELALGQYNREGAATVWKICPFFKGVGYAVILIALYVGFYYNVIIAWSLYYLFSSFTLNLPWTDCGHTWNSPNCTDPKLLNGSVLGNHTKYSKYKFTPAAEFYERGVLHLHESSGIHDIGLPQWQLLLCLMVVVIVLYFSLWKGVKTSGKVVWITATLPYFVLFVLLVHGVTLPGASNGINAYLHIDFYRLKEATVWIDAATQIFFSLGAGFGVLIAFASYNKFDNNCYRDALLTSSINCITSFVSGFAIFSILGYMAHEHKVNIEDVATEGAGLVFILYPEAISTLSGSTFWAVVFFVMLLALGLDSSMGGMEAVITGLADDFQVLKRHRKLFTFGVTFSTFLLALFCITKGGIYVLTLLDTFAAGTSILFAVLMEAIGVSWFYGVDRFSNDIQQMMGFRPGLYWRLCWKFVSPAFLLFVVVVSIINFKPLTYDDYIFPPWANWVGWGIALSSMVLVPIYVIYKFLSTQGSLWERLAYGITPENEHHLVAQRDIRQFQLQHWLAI
# [10] = test system: voltage-gated (KV) potassium channel; assay: SafetyScreen44 binding; parameters: species or system rat; details: 10 μM
# Protocol: as §1
# [11] = test system: motor function of mice; assay: Accelerating rotarod test (motor function); type: in vivo; parameters: motor function in the accelerating rotarod test: dose or concentration left out as unconfirmed; details: 15 min after administration
# Protocol: (§2) Further studies were conducted to assess the in vivo efficacy of Compound 6 and Compound 10 in mice. In detail, experiments were performed in 8 to 16 weeks old C57BL/6N mice (Charles River, Sulzfeld, Germany) and animals with a genetic deletion of Slack (Slack^−/− mice^27) of either sex. Animals were housed on a 12 h light/dark cycle with access to food and water ad libitum. All experiments adhered to the guidelines of the International Association for the Study of Pain and to the ARRIVE (Animal Research: Reporting on In Vivo Experiments) guidelines, and were approved by and conducted in accordance with the regulations of the local Animal Welfare authorities (Regierungspräsidium Darmstadt, Germany). All behavioral studies were conducted during the light cycle of the day at room temperature (20-24° C.) by an observer blinded for the treatment of the animals and/or their genotype.
# (§3) Accelerating rotarod and vertical pole test were performed as follows: Mice were placed on a rotarod treadmill (Ugo Basile, Italy) with increasing speed (4-40 rpm over 300 s), and were trained for 4-5 consecutive days. Only mice reaching the 300 seconds without falling off were included in the experiment. On the testing day, compounds were i.p. administered in a vehicle composed of 0.9% saline (Sigma-Aldrich) containing 10% 2-hydroxypropyl-β-cyclodextrine (ITW Reagents) and after 15 min the latency to fall off the accelerating rotarod was measured. Immediately thereafter, mice were placed head-upward on the top of a vertical pole with a rough surface (diameter 1 cm, height 40 cm) and the time until animals reached the ground was recorded (cut-off time 20 s). Means out of three trials for each time point were calculated for further analysis.
# [12] = test system: motor function of mice; assay: Vertical pole test (motor function); type: in vivo; details: 3-30 mg i.p., after rotarod test
# Protocol: as §2, §3
# [13] = test system: chloroquine-induced scratching behavior of mice; assay: Chloroquine-induced acute itch (scratching) model, systemic treatment; type: in vivo; details: for chloroquine-induced scratching behavior: WT mice, 3, 10 or 30 mg/kg i.p. 15 min prior to s.c. chloroquine
# Protocol: as §2
# Acute itch behavior of the mice was monitored using a histamine-based, chloroquine-based and SLIGRL-based acute itch behavior model. In these models, three to four days before the experiment day, the fur on the dorsolateral aspect of the neck was shaved under brief isoflurane anesthesia. On the testing day, mice were habituated for 30 min in separate plexiglass cylinders (30 cm diameter). Compounds were dissolved in 0.9% saline containing 10% 2-hydroxypropyl-β-cyclodextrine and i.p. administered in a volume of maximal 200 μL. 15 min thereafter, the pruritogens chloroquine (200 μg), SLIGRL (100 μg) or histamine (800 μg), all dissolved in 0.9% saline (20 μL), were injected subcutaneously into the nape of the neck. Numbers of scratching bouts directed to the nape of the neck were assessed over 30 min by videotaping.
Structure (SMILES),number of targets with substantial binding inhibition (higher than 50%) [2],"binding inhibition, D1 [4]","binding inhibition, H1 [5]",binding to hERG potassium channel in the off-target screen [6],"binding inhibition, 5-HT2A [7]","binding inhibition, 5-HT2B [8]",binding to voltage-gated (KV) potassium channel in the off-target screen [10],motor function in the accelerating rotarod test [11],motor function in the vertical pole test [12],chloroquine-induced scratching behavior [13],also measured
"O=C(O)COCCN1CCN(C2=Nc3ccccc3Oc3ccc(Cl)cc32)CC1 [Compound 6, 2-(2-(4-(2-Chlorodibenzo[b,f][1,4]oxazepin-11-yl)piperazin-1-yl)ethoxy) acetic acid]",8,substantial binding,substantial binding,did not measurably bind,substantial binding,substantial binding,did not measurably bind,did neither impair the motor function,did neither impair the motor function,ameliorate the scratching behavior in a dose-dependent manner,"% AUCextra ([1]; 1 mg/kg): 10.1%; AUC(0-inf) ([1]; 1 mg/kg): 0.467 µg·h/mL; AUC(0-t) ([1]; 1 mg/kg): 0.42 µg·h/mL; CL/F ([1]; 1 mg/kg): 2.14 L/h/kg; Cmax ([1]; 1 mg/kg): 0.24 µg/mL; Cz ([1]; 1 mg/kg): 13.3 ng/mL; Tmax ([1]; 1 mg/kg): 0.25 h; Vd/F ([1]; 1 mg/kg): 7.56 L/kg; half-life ([1]; 1 mg/kg): 2.4 h; tz ([1]; 1 mg/kg): 8 h; Kp ([1]; mice, 1 mg/kg i.p., read-out: brain/plasma ratio): ≤ 0.3; binding inhibition, α1A [3]: substantial binding; binding inhibition, NET [9]: substantial binding; chloroquine-induced scratching in Slack−/− mice ([13]; Slack−/− mice, 10 mg/kg): did not significantly alter; antipruritic effect after pretreatment with Slack inhibitor Compound 31 ([13]; WT mice, Compound 31 30 mg/kg i.p. 5 min prior to Compound 6 30 mg/kg i.p.): partly antagonized"
"O=c1nc(CN2CCN(C3=Nc4ccccc4Oc4ccc(Cl)cc43)CC2)[nH][nH]1 [Compound 10, 5-((4-(2-Chlorodibenzo[b,f][1,4]oxazepin-11-yl)piperazin-1-yl)methyl)-1,2-dihydro-3H-1,2,4-triazol-3-one]",5,substantial binding inhibition,substantial binding inhibition,did not measurably bind,substantial binding inhibition,substantial binding inhibition,did not measurably bind,did neither impair the motor function,did neither impair the motor function,ameliorate the scratching behavior in a dose-dependent manner,Kp ([1]; 1 mg/kg): ≤ 0.3
